Assay results as given in US20110040086A1, “Novel Beta-Lactam Antibiotics, Methods for Their Production, and Their Use” (DRITTE PATENTPORTFOLIO BETEILIGUNGSGESELLSCHAFT MB, priority 2007, published 2011).

Tests used:
[1] = system: S. aureus ATCC 6538; assay: agar diffusion test (Test System II, multi-resistant germs); type: cell-based, Staphylococcus aureus
In short: (§1)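 Compounds, dissolved in methanol or distilled water, were loaded onto paper discs at 10, 50 and 100 μg and placed three per plate on Müller-Hinton agar II spread with a McFarland 0.5 saline suspension. After 18-20 h at 37 °C, inhibition zone diameters were measured.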

[2] = system: S. aureus 38418; assay: as above; type: cell-based, Staphylococcus aureus
In short: as §1

[3] = system: S. aureus 36881; assay: as above; type: cell-based, Staphylococcus aureus; design: key: r = resistant (no detectable zone of inhibition)
In short: as §1

[4] = system: S. aureus 520; assay: as above; type: cell-based, Staphylococcus aureus; design: key: r = resistant (no detectable zone of inhibition)
In short: as §1

[5] = system: S. aureus North Germany strain; assay: as above; type: cell-based, Staphylococcus aureus; design: key: r = resistant (no detectable zone of inhibition)
In short: as §1

[6] = system: S. aureus 34289; assay: as above; type: cell-based, Staphylococcus aureus; design: key: r = resistant (no detectable zone of inhibition)
In short: as §1

[7] = system: S. aureus 39105; assay: as above; type: cell-based, Staphylococcus aureus; design: key: r = resistant (no detectable zone of inhibition)
In short: as §1

[8] = system: S. aureus 33490; assay: as above; type: cell-based, Staphylococcus aureus; design: key: r = resistant (no detectable zone of inhibition)
In short: as §1

[9] = system: S. aureus 526; assay: as above; type: cell-based, Staphylococcus aureus; design: key: r = resistant (no detectable zone of inhibition)
In short: as §1

[10] = system: S. epidermidis 125; assay: as above; type: cell-based, Staphylococcus epidermidis
In short: as §1

[11] = system: Bacillus megaterium SBUG 1152; assay: agar diffusion test (Test System 1, antimicrobial effect); type: cell-based
In short: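 Paper discs loaded with 10 μg, 50 μg or 100 μg of test substance (methanol or water solution) placed on nutrient agar seeded with 10^6 cells of a 17-h B. megaterium culture. After 20 h at 37° C., zone of inhibition measured as diameter in mm.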

[12] = system: Staphylococcus aureus 315; assay: agar diffusion test (Test System II, multi-resistant germs); type: cell-based; design: key: r = resistant (no detectable zone of inhibition)
In short: as §1

[13] = system: Staphylococcus aureus ATCC 6538; assay: mouse infected with Staphylococcus aureus infection model (survival); type: in vivo, BALB/c mice
In short: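 Survival model: S. aureus grown to extinction 0.6 at 550 nm and injected i.p. (10 μl/g body weight) into cyclophosphamide-pretreated BALB/c mice (250 then 100 mg/kg i.p.), ≥3 animals per arm. Test antibiotic dosed i.p. at 30 min and again later at the same concentration, vehicle PBS/3% DMSO.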

[14] = system: Escherichia coli SBUG 1135; assay: agar diffusion test (Test System 1, antimicrobial effect); type: cell-based
In short: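 Disc diffusion: compound at 10 μg, 50 μg, 100 μg on sensi-discs, three per plate of nutrient agar seeded with ~10^6 E. coli SBUG 1135 (overnight culture, 17 h, 37° C, diluted 1:100). After 20 h incubation at 37° C, zone diameter recorded in mm.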

Structure (SMILES): O=C(O)C1=C(Cl)CSC2C(NC(=O)C(NC3=C(C(=O)NCCO)C(=O)C=CC3=O)c3ccccc3)C(=O)N12 (stereo not drawn) [1i, 3-chlorine-7-{2-[2-(2-hydroxyethylcarbamoyl)-3,6-dioxocyclohexa-1,4-dienylamino]-2-phenyl-acetylamino}-8-oxo-1-thia-5-azabicyclo[4.2.0]oct-3-en-4-carboxylic acid]
- Diameter of zone of inhibition ([1]; Quantity n 0.029): 26 mm
- Diameter of zone of inhibition ([1]; Quantity n 0.14): 34 mm
- Diameter of zone of inhibition ([1]; Quantity n 0.29): 36 mm
- Diameter of zone of inhibition ([2]; Quantity n [mol] 0.029): 20 mm
- Diameter of zone of inhibition ([2]; Quantity n [mol] 0.14): 30 mm
- Diameter of zone of inhibition ([2]; Quantity n [mol] 0.29): 34 mm
- Diameter of zone of inhibition ([3]; Quantity n 0.029): r
- Diameter of zone of inhibition ([3]; Quantity n 0.14): 12 mm
- Diameter of zone of inhibition ([3]; Quantity n 0.29): 18 mm
- Diameter of zone of inhibition ([4]; Quantity n [mol] 0.029): r
- Diameter of zone of inhibition ([4]; Quantity n [mol] 0.14): r
- Diameter of zone of inhibition ([4]; Quantity n [mol] 0.29): r
- Diameter of zone of inhibition ([5]; Quantity n 0.029): r
- Diameter of zone of inhibition ([5]; Quantity n 0.14): 12 mm
- Diameter of zone of inhibition ([5]; Quantity n 0.29): 16 mm
- Diameter of zone of inhibition ([6]; Quantity n [mol] 0.029): r
- Diameter of zone of inhibition ([6]; Quantity n [mol] 0.14): r
- Diameter of zone of inhibition ([6]; Quantity n [mol] 0.29): r
- Diameter of zone of inhibition ([7]; Quantity n 0.029): r
- Diameter of zone of inhibition ([7]; Quantity n 0.14): 18 mm
- Diameter of zone of inhibition ([7]; Quantity n 0.29): 22 mm
- Diameter of zone of inhibition ([8]; Quantity n [μmol] 0.029): 14 mm
- Diameter of zone of inhibition ([8]; Quantity n [μmol] 0.14): 22 mm
- Diameter of zone of inhibition ([8]; Quantity n [μmol] 0.29): 26 mm
- Diameter of zone of inhibition ([9]; Quantity n 0.029): r
- Diameter of zone of inhibition ([9]; Quantity n 0.14): r
- Diameter of zone of inhibition ([9]; Quantity n 0.29): r
- Diameter of zone of inhibition ([10]; Quantity n 0.029): 20 mm
- Diameter of zone of inhibition ([10]; Quantity n 0.14): 28 mm
- Diameter of zone of inhibition ([10]; Quantity n 0.29): 32 mm
- Diameter of zone of inhibition ([11]; Quantity n 0.029): 26 mm
- Diameter of zone of inhibition ([11]; Quantity n 0.14): 32 mm
- Diameter of zone of inhibition ([11]; Quantity n 0.29): 34 mm
- Diameter of zone of inhibition ([12]; Quantity n 0.029): r
- Diameter of zone of inhibition ([12]; Quantity n 0.14): 10 mm
- Diameter of zone of inhibition ([12]; Quantity n 0.29): 14 mm
- Survival/tested mice n/n ([13]; 2 × 0.5 mg (25 mg/kg) i.p.): 12/12
- Diameter of zone of inhibition ([14]; Quantity n 0.029): 18 mm
- Diameter of zone of inhibition ([14]; Quantity n 0.14): 24 mm
- Diameter of zone of inhibition ([14]; Quantity n 0.29): 28 mm

Structure (SMILES): NC(=O)C1=C(NC(C(=O)NC2C(=O)N3C(C(=O)O)=C(Cl)CSC23)c2ccccc2)C(=O)C=CC1=O (stereo not drawn) [1j, 3-chlorine-7-[2-(2-carbamoyl-3,6-dioxocyclohexa-1,4-dienylamino)-2-phenyl-acetylamino]-8-oxo-1-thia-5-azabicyclo[4.2.0]oct-3-en-4-carboxylic acid]
- Diameter of zone of inhibition ([1]; Quantity n 0.02): 28 mm
- Diameter of zone of inhibition ([1]; Quantity n 0.1): 34 mm
- Diameter of zone of inhibition ([1]; Quantity n 0.2): 38 mm
- Diameter of zone of inhibition ([2]; Quantity n [mol] 0.02): 22 mm
- Diameter of zone of inhibition ([2]; Quantity n [mol] 0.1): 30 mm
- Diameter of zone of inhibition ([2]; Quantity n [mol] 0.2): 34 mm
- Diameter of zone of inhibition ([3]; Quantity n 0.02): r
- Diameter of zone of inhibition ([3]; Quantity n 0.1): 12 mm
- Diameter of zone of inhibition ([3]; Quantity n 0.2): 16 mm
- Diameter of zone of inhibition ([4]; Quantity n [mol] 0.02): r
- Diameter of zone of inhibition ([4]; Quantity n [mol] 0.1): 8 mm
- Diameter of zone of inhibition ([4]; Quantity n [mol] 0.2): 12 mm
- Diameter of zone of inhibition ([5]; Quantity n 0.02): r
- Diameter of zone of inhibition ([5]; Quantity n 0.1): 12 mm
- Diameter of zone of inhibition ([5]; Quantity n 0.2): 16 mm
- Diameter of zone of inhibition ([6]; Quantity n [mol] 0.02): r
- Diameter of zone of inhibition ([6]; Quantity n [mol] 0.1): r
- Diameter of zone of inhibition ([6]; Quantity n [mol] 0.2): r
- Diameter of zone of inhibition ([7]; Quantity n 0.02): r
- Diameter of zone of inhibition ([7]; Quantity n 0.1): 16 mm
- Diameter of zone of inhibition ([7]; Quantity n 0.2): 18 mm
- Diameter of zone of inhibition ([8]; Quantity n [μmol] 0.02): 16 mm
- Diameter of zone of inhibition ([8]; Quantity n [μmol] 0.1): 24 mm
- Diameter of zone of inhibition ([8]; Quantity n [μmol] 0.2): 26 mm
- Diameter of zone of inhibition ([9]; Quantity n 0.02): r
- Diameter of zone of inhibition ([9]; Quantity n 0.1): r
- Diameter of zone of inhibition ([9]; Quantity n 0.2): r
- Diameter of zone of inhibition ([10]; Quantity n 0.02): 22 mm
- Diameter of zone of inhibition ([10]; Quantity n 0.1): 30 mm
- Diameter of zone of inhibition ([10]; Quantity n 0.2): 32 mm
- Diameter of zone of inhibition ([11]; Quantity n 0.02): 28 mm
- Diameter of zone of inhibition ([11]; Quantity n 0.1): 36 mm
- Diameter of zone of inhibition ([11]; Quantity n 0.2): 40 mm
- Diameter of zone of inhibition ([12]; Quantity n 0.02): r
- Diameter of zone of inhibition ([12]; Quantity n 0.1): 8 mm
- Diameter of zone of inhibition ([12]; Quantity n 0.2): 12 mm
- Survival/tested mice n/n ([13]; 2 × 0.5 mg (25 mg/kg) i.p.): 3/3
- Diameter of zone of inhibition ([14]; Quantity n 0.02): 18 mm
- Diameter of zone of inhibition ([14]; Quantity n 0.1): 26 mm
- Diameter of zone of inhibition ([14]; Quantity n 0.2): 28 mm

Structure (SMILES): CCOC(=O)C1=C(NC(C(=O)NC2C(=O)N3C(C(=O)O)=C(Cl)CSC23)c2ccccc2)C(=O)C=CC1=O (stereo not drawn) [1l]
- Diameter of zone of inhibition ([1]; Quantity n 0.019): 24 mm
- Diameter of zone of inhibition ([1]; Quantity n 0.09): 30 mm
- Diameter of zone of inhibition ([1]; Quantity n 0.19): 34 mm
- Diameter of zone of inhibition ([2]; Quantity n [mol] 0.019): 18 mm
- Diameter of zone of inhibition ([2]; Quantity n [mol] 0.09): 28 mm
- Diameter of zone of inhibition ([2]; Quantity n [mol] 0.19): 30 mm
- Diameter of zone of inhibition ([3]; Quantity n 0.019): r
- Diameter of zone of inhibition ([3]; Quantity n 0.09): 8 mm
- Diameter of zone of inhibition ([3]; Quantity n 0.19): 18 mm
- Diameter of zone of inhibition ([4]; Quantity n [mol] 0.019): r
- Diameter of zone of inhibition ([4]; Quantity n [mol] 0.09): r
- Diameter of zone of inhibition ([4]; Quantity n [mol] 0.19): 10 mm
- Diameter of zone of inhibition ([5]; Quantity n 0.019): r
- Diameter of zone of inhibition ([5]; Quantity n 0.09): 10 mm
- Diameter of zone of inhibition ([5]; Quantity n 0.19): 16 mm
- Diameter of zone of inhibition ([6]; Quantity n [mol] 0.019): r
- Diameter of zone of inhibition ([6]; Quantity n [mol] 0.09): r
- Diameter of zone of inhibition ([6]; Quantity n [mol] 0.19): r
- Diameter of zone of inhibition ([7]; Quantity n 0.019): r
- Diameter of zone of inhibition ([7]; Quantity n 0.09): 18 mm
- Diameter of zone of inhibition ([7]; Quantity n 0.19): 22 mm
- Diameter of zone of inhibition ([8]; Quantity n [μmol] 0.019): 14 mm
- Diameter of zone of inhibition ([8]; Quantity n [μmol] 0.09): 20 mm
- Diameter of zone of inhibition ([8]; Quantity n [μmol] 0.19): 24 mm
- Diameter of zone of inhibition ([9]; Quantity n 0.019): r
- Diameter of zone of inhibition ([9]; Quantity n 0.09): r
- Diameter of zone of inhibition ([9]; Quantity n 0.19): r
- Diameter of zone of inhibition ([10]; Quantity n 0.019): 18 mm
- Diameter of zone of inhibition ([10]; Quantity n 0.09): 26 mm
- Diameter of zone of inhibition ([10]; Quantity n 0.19): 28 mm
- Diameter of zone of inhibition ([11]; Quantity n 0.019): 30 mm
- Diameter of zone of inhibition ([11]; Quantity n 0.09): 34 mm
- Diameter of zone of inhibition ([11]; Quantity n 0.19): 38 mm
- Diameter of zone of inhibition ([12]; Quantity n 0.019): r
- Diameter of zone of inhibition ([12]; Quantity n 0.09): 10 mm
- Diameter of zone of inhibition ([12]; Quantity n 0.19): 14 mm
- Survival/tested mice n/n ([13]; 2 × 1.0 mg (50 mg/kg) i.p.): 3/3
- Diameter of zone of inhibition ([14]; Quantity n 0.019): 18 mm
- Diameter of zone of inhibition ([14]; Quantity n 0.09): 24 mm
- Diameter of zone of inhibition ([14]; Quantity n 0.19): 28 mm
